The source of these data is patent publication US7375124B2, “Use of α-phenylthiocarboxylic and α-phenyloxycarboxylic acids with serum-glucose-lowering and serum-lipid-lowering activity” (Sigma-Tau Industrie Farmaceutiche Riunite S.p.A., priority 2002, dated 2008).

The assay deals with T1, mPPARαLBD/Gal4DBD (Mus musculus, UniProt P23204).
T1 construct: expressed in transfected cells; host or cells: COS-7 (monkey kidney fibroblasts)
T1 sequence (P23204 239-466 limits assumed): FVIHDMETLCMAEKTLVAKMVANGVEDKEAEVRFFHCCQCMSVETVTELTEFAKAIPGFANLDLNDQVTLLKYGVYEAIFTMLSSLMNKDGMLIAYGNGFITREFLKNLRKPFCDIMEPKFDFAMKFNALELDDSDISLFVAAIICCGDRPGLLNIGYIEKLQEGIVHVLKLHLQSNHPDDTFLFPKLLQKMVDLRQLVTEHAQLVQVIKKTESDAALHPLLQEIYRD
Put plainly: Transactivation assay mediated by mPPARαLBD/Gal4DBD in COS-7 cells (CAT reporter). It is filed as cell-based. From the text: In this model a transactivation assay is used in which the expression vector mPPARαLBD/Gal4 DBD allows the synthesis by the transfected cell of a chimeric protein, in which the ligand binding domain (LBD) of PPARα is fused with the DNA binding domain (DBD) of the transcription factor GAL4 of yeast [Luckow B. et al., Nucleic Acids Res. 15, 5490 (1987)]. Simultaneously, a plasmid (pG5CAT) is transfected which contains 5 copies of the high-affinity binding site for GAL4 (also called UAS, upstream activating sequence), upstream of the viral promoter E1b fused with the CAT reporter gene [Moya-Camarena S. Y. et al., J. Lipid Res. 40 (8), 1426-33 (1999)]. This model eliminates interference by possible endogenous receptors.
This is due to the fact that the activation of E1b and the production of CAT will occur exclusively thanks to the interaction of GAL4 DBD with its own response element (UAS). Since the transcription factor GAL4 is not expressed in […] cells, transactivation of the reporter gene can take place only when, as a result of the interaction of a ligand with the LBD of PPARα, the chimeric protein PPARα/GAL4 recognises the UAS sequence on the plasmid pG5CAT. Together with the expression vector and the reporter vector the cells were also transfected with the plasmid pCH110 which provides the internal control for the efficiency of transfection and the normalisation of the results.
A monkey kidney fibroblast cell line (COS-7) was used [Elbrecht A. et al., J. Biol. Chem. 274 (12), 7913-22 (1999)]. The cells were co-transfected with the reporter vector, the expression plasmid coding for the fusion protein Gal4 DBD/PPARαLBD and the control vector pCH110. The cells were exposed to increasing concentrations of the study compounds and CAT activity was evaluated. Untreated cells were used as controls.
Monkey kidney fibroblasts (COS-7) were cultured according to the usual cell culture techniques, at 37° C. in a 5% v/v carbon dioxide atmosphere using as the growth medium DMEM (Dulbecco's modified Eagle's medium) modified with 3.7 g/l of sodium bicarbonate, 4 mM L-glutamine, 4.5 g/l of glucose, 1 mM sodium pyruvate and 10% v/v of foetal bovine serum, in the presence of streptomycin 100 μg/ml and penicillin 100 U/ml final.
The cells were co-transfected using the transfection reagent FuGENE6 (Roche), consisting of a defined mixture of lipids capable of complexing the DNA and of transporting it into the cells. Twenty-four hours prior to transfection the cells were plated at a density of 1.2×10^5 cells/well in 12-well plates and maintained at 37° C. in a 5% v/v CO2 atmosphere. […] Briefly, the transfection mixture containing 0.8 μg of the expression vector, 1.6 μg of the reporter vector, 0.8 μg of the control vector and 9 μl of the FuGENE6 reagent per well was added directly to the cells in the presence of culture medium devoid of serum. After 5 hours, the transfection medium was replaced by 1 ml of culture medium complete with serum and antibiotics in the presence or absence of the molecules to be tested at 3 different concentrations (2, 20 and 100 μM). Wy-14,643 (2 μM), a known ligand of PPARα, was used as the positive reference compound.
After 48 hours' incubation at 37° C. in a 5% v/v CO2 atmosphere, the cells were washed twice with 1 ml of phosphate buffer (PBS) and removed mechanically from the wells in TEN buffer (Tris[hydroxymethyl]aminomethane 10 mM pH 8, ethylenediamine-tetraacetic acid 1 mM pH 8, sodium chloride 0.1 M). After centrifuging for 3 minutes at 1000 rpm, the cells were resuspended in 65 μl of lysis buffer (Tris-HCl 0.25 M, pH 8) and then lysed thanks to three rapid freeze-thaw cycles. The insoluble cellular materials (debris) were removed by centrifuging at 15,000 rpm for 15 minutes at 4° C., and the supernatant was recovered and used for the CAT and β-galactosidase activity assays. […]

For the compound `CC(C)(Sc1cccc(OCCc2ccc(Cl)cc2)c1)C(=O)O` [Example 2, 2-[3-[2-(4-chlorophenyl)ethoxy]phenylthio]-2-methylpropanoic acid], the “Activation of reporter gene CAT as a percentage of the reference compound (WY-14,643 2 μM = 100%)” value was determined as 69.7% (2 μM), 103.6% (20 μM) and 280.9% (100 μM).
